EC50 data for 16 compounds are collected here from patent publication US11820773B2, “Tricyclic compounds” (ALIGOS THERAPEUTICS, INC., priority 2020, dated 2023).

The test system of the experiment is HBV. Nature of the experiment: HBV-DNA antiviral assay using HepG2.117 cells (intracellular HBV DNA by qPCR). The format is cell-based, genotype D HBV. As to conditions: HBV DNA inhibition, 3 days incubation, 2% DMSO. The procedure: The following assay procedure describes the HBV antiviral assay, using HepG2.117 cells, which carry a stably integrated genotype D HBV genome under the control of a Tet-off promoter, and intracellular HBV DNA quantification as endpoint. Cell viability is assessed in parallel by measuring the intracellular ATP content using CellTiter-Glo 2.0 (Promega).
On day 0, HepG2.117 cells (which are maintained in routine cell culture with doxycycline present in the medium at a final concentration of 1 μg/mL) were seeded in 96-well plates (white with clear bottom) at a density of 2.0×10^4 cells/well (0.1 mL/well) in medium without doxycycline to induce pgRNA transcription and subsequent formation of HBV particles. The cells were incubated at 37° C. and 5% CO2.
On day 1, medium was removed from each well, the test articles were diluted in culture medium without doxcycyline and 100 μL was added to cell culture wells (9 concentrations, 4-fold dilution). For each plate, 6 untreated (merely DMSO) wells were included. The final concentration of DMSO in the culture medium was 2%. Each plate was prepared in duplicate (one for HBV DNA extraction, one for CellTiter-Glo 2.0 measurement). The cells were incubated at 37° C. and 5% CO2 for 3 days.
On day 4, cell viability was assessed using CellTiter-Glo 2.0 and cell lysates were prepared for HBV DNA extraction and subsequent quantification by qPCR.
HBV DNA Quantification by qPCR
Medium was removed from each well and 100 μL of 0.33% NP-40 in H2O was added to each well. Plates were sealed, incubated at 4° C. for 5 mins, vortexed extensively and centrifuged briefly. Next, 35 μL of lysate was added to 65 μL QuickExtract DNA Extraction Solution (Epicentre) in a PCR plate for each well. PCR plate was incubated at 65° C. for 6 mins, 98° C. for 2 mins and finally cooled to 4° C. HBV DNA was then quantified by qPCR with HBV-specific primers and probes as specified in Table 1 using the Bio-Rad SSOAdvanced Universal Probes Supermix on a CFX96 machine (Bio-Rad). The PCR cycle program consisted of 95° C. for 3 mins, followed by 40 cycles at 95° C. for 10 sec and 60° C. for 30 sec.
A DNA standard was prepared by dilution of an IDT gBlock corresponding to the amplicon with concentrations ranging from 10^2 to 10^8 copies/input (i.e. per 4 μL) and used to generate a standard curve by plotting Cq values vs. HBV DNA standard concentration. The quantity of HBV DNA in each sample was determined by interpolating from the standard curve.
Cell viability was calculated as follows: % Cell viability=(luminescence value of test sample)/(average luminescence value of 2% DMSO control)×100%. HBV DNA inhibition was calculated as follows: 100−(HBV DNA copy number of test sample)/(average HBV DNA copy number of 2% DMSO control)×100%. No normalization to entecavir was required due to the excellent dynamic window of this assay. The CC50, EC50 and EC90 values were determined by dose-response curves fitted by GraphPad Prism using “log (agonist) vs. response—Variable slope”.
A general note: Real-time PCR tracks product formation cycle by cycle.

Some results are limits rather than exact numbers.

Regarding `CC(C)[C@@H](N)C(=O)OCN(C)C(=O)c1ccc(-n2c(=O)c3c(n4ncc(CC5CC5)c24)CN(C(=O)c2ccc(Br)c(C(F)(F)F)c2)[C@H](C)C3)cc1` [Compound 106, [[4-[(11R)-12-[4-bromo-3-(trifluoromethyl)benzoyl]-5-(cyclopropylmethyl)-11-methyl-8-oxo-2,3,7,12-tetrazatricyclo[7.4.0.0^2,6]trideca-1(9),3,5-trien-7-yl]benzoyl]-methyl-amino]methyl (2S)-2-amino-3-methyl-butanoate], the EC50 (Hepatitis B virus, 72 h) was less than 50 nM. Still for that read-out and setting: next, `Cc1nnc(-c2ccc(-n3c(=O)c4c(n5ncc(Cc6ccccc6)c35)CN(C(=O)c3ccc(Br)c(C(F)(F)F)c3)[C@H](C)C4)cc2)[nH]1` (stereo in doubt) [Compound 47a, rac-(11R)-5-benzyl-12-[4-bromo-3-(trifluoromethyl)benzoyl]-11-methyl-7-[4-(5-methyl-4H-1,2,4-triazol-3-yl)phenyl]-2,3,7,12-tetrazatricyclo[7.4.0.0^2,6]trideca-1(9),3,5-trien-8-one]: less than 50 nM; `CNC(=O)c1ccc(-n2c(=O)c3c(n4ncc(CC5CCOC5)c24)CN(C(=O)c2ccc(Br)c(Cl)c2)CC3)cc1` (stereo not shown) [Compound 17, 4-[12-(4-bromo-3-chloro-benzoyl)-8-oxo-5-(tetrahydrofuran-3-ylmethyl)-2,3,7,12-tetrazatricyclo[7.4.0.0^2,6]trideca-1(9),3,5-trien-7-yl]-N-methyl-benzamide]: less than 50 nM.

Regarding `Cc1nn[nH]c1-c1ccc(-n2c(=O)c3c(n4ncc(CC5CCC5)c24)CN(C(=O)c2ccc(Br)c(C(F)(F)F)c2)[C@H](C)C3)cc1` (stereo in doubt) [Compound 76a, rac-(11R)-12-[4-bromo-3-(trifluoromethyl)benzoyl]-5-(cyclobutylmethyl)-11-methyl-7-[4-(4-methyl-1H-triazol-5-yl)phenyl]-2,3,7,12-tetrazatricyclo[7.4.0.0^2,6]trideca-1(9),3,5-trien-8-one], where the note is “Hepatitis B virus, 72 h”, the EC50 was less than 50 nM. Still for that read-out and setting: then `CNC(=O)c1cc(-n2c(=O)c3c(n4ncc(Cc5ccccc5)c24)CN(C(=O)c2ccc(Br)c(C(F)(F)F)c2)CC3)nn1C` [Compound 29, 5-[5-benzyl-12-[4-bromo-3-(trifluoromethyl)benzoyl]-8-oxo-2,3,7,12-tetrazatricyclo[7.4.0.0^2,6]trideca-1(9),3,5-trien-7-yl]-N,2-dimethyl-pyrazole-3-carboxamide], with less than 50 nM; and `CNc1n[nH]c2cc(-n3c(=O)c4c(n5ncc(CC(C)C)c35)CN(C(=O)c3ccc(Cl)c(C(F)(F)F)c3)[C@@H](C)C4)ccc12` (stereo in doubt) [Compound 56b, rac-(11S)-12-[4-chloro-3-(trifluoromethyl)benzoyl]-5-isobutyl-11-methyl-7-[3-(methylamino)-1H-indazol-6-yl]-2,3,7,12-tetrazatricyclo[7.4.0.0^2,6]trideca-1(9),3,5-trien-8-one], with 50 to 500 nM. Still for that read-out and setting: then `C[C@@H]1Cc2c(n3ncc(Cc4ccccc4)c3n(-c3ccc4c(c3)nnn4C)c2=O)CN1C(=O)c1ccc(Br)c(C(F)(F)F)c1` (stereo in doubt) [Compound 72a, rac-(11R)-5-benzyl-12-[4-bromo-3-(trifluoromethyl)benzoyl]-11-methyl-7-(1-methylbenzotriazol-5-yl)-2,3,7,12-tetrazatricyclo[7.4.0.0^2,6]trideca-1(9),3,5-trien-8-one], with less than 50 nM; and `Cc1nnnn1-c1ccc(-n2c(=O)c3c(n4ncc(Cc5ccccc5)c24)CN(C(=O)c2ccc(Br)c(C(F)(F)F)c2)[C@@H](C)C3)cc1` (stereo in doubt) [Compound 46b, rac-(11S)-5-benzyl-12-[4-bromo-3-(trifluoromethyl)benzoyl]-11-methyl-7-[4-(5-methyltetrazol-1-yl)phenyl]-2,3,7,12-tetrazatricyclo[7.4.0.0^2,6]trideca-1(9),3,5-trien-8-one], with 50 to 500 nM; and `C[C@@H]1Cc2c(n3ncc(Cc4ccccc4)c3n(-c3ccc(-c4ncnn4C)cc3)c2=O)CN1C(=O)c1ccc(Br)c(C(F)(F)F)c1` (stereo in doubt) [Compound 49a, rac-(11R)-5-benzyl-12-[4-bromo-3-(trifluoromethyl)benzoyl]-11-methyl-7-[4-(2-methyl-1,2,4-triazol-3-yl)phenyl]-2,3,7,12-tetrazatricyclo[7.4.0.0^2,6]trideca-1(9),3,5-trien-8-one], with less than 50 nM.

In turn, `CC(C)Cc1cnn2c3c(c(=O)n(-c4ccc(-c5nc(=O)on5C)cc4)c12)C[C@H](C)N(C(=O)c1ccc(Br)c(C(F)(F)F)c1)C3` (stereo in doubt) [Compound 94b, 2-methyl-3-[4-[rac-(11S)-12-[4-bromo-3-(trifluoromethyl)benzoyl]-5-isobutyl-11-methyl-8-oxo-2,3,7,12-tetrazatricyclo[7.4.0.0^2,6]trideca-1(9),3,5-trien-7-yl]phenyl]-1,2,4-oxadiazol-5-one] had an EC50 (Hepatitis B virus, 72 h) of 50 to 500 nM. As to `CC(C)Cc1cnn2c3c(c(=O)n(-c4ccc(-c5nncn5C)cc4)c12)C[C@@H](C)N(C(=O)c1ccc(Br)c(Cl)c1)C3` [Compound 60a, (11R)-12-(4-bromo-3-chlorobenzoyl)-11-methyl-7-[4-(4-methyl-1,2,4-triazol-3-yl)phenyl]-5-(2-methylpropyl)-2,3,7,12-tetraazatricyclo[7.4.0.0^{2,6}]trideca-1(9),3,5-trien-8-one], the EC50 is less than 50 nM. For the setting “Hepatitis B virus, 72 h”, `CNc1n[nH]c2cc(-n3c(=O)c4c(n5ncc(Cc6ccccc6)c35)CN(C(=O)c3ccc(Br)c(C(F)(F)F)c3)CC4)ccc12` [Compound 26, 5-benzyl-12-[4-bromo-3-(trifluoromethyl)benzoyl]-7-[3-(methylamino)-1H-indazol-6-yl]-2,3,7,12-tetrazatricyclo[7.4.0.0^2,6]trideca-1(9),3,5-trien-8-one] gave an EC50 of less than 50 nM. Still for that read-out and setting: next, `CC(C)Cc1cnn2c3c(c(=O)n(-c4ccc5c(c4)nnn5C)c12)C[C@H](C)N(C(=O)c1ccc(Br)c(C(F)(F)F)c1)C3` (stereo in doubt) [Compound 95b, rac-(11S)-12-[4-bromo-3-(trifluoromethyl)benzoyl]-5-isobutyl-11-methyl-7-(1-methylbenzotriazol-5-yl)-2,3,7,12-tetrazatricyclo[7.4.0.0^2,6]trideca-1(9),3,5-trien-8-one]: 50 to 500 nM; `C[C@@H]1Cc2c(n3ncc(CC4CCC4)c3n(-c3ccc(-c4nncn4C)cc3)c2=O)CN1C(=O)c1ccc(Cl)c(C(F)(F)F)c1` (stereo in doubt) [Compound 51a, rac-(11R)-12-[4-chloro-3-(trifluoromethyl)benzoyl]-5-(cyclobutylmethyl)-11-methyl-7-[4-(4-methyl-1,2,4-triazol-3-yl)phenyl]-2,3,7,12-tetrazatricyclo[7.4.0.0^2,6]trideca-1(9),3,5-trien-8-one]: less than 50 nM. Still for that read-out and setting: next, `C[C@H]1Cc2c(n3ncc(CC4CC4)c3n(-c3ccc(C(=O)N(C)COC(=O)CN)cc3)c2=O)CN1C(=O)c1ccc(Br)c(C(F)(F)F)c1` (racemic) [Compound 97, [methyl-[4-[rac-(11S)-12-[4-bromo-3-(trifluoromethyl)benzoyl]-5-(cyclopropylmethyl)-11-methyl-8-oxo-2,3,7,12-tetrazatricyclo[7.4.0.0^2,6]trideca-1(9),3,5-trien-7-yl]benzoyl]amino]methyl 2-aminoacetate]: more than 5000 nM; `C[C@@H]1Cc2c(n3ncc(CC4CC4)c3n(-c3ccc(-c4nc(=O)on4C)cc3)c2=O)CN1C(=O)c1ccc(Br)c(C(F)(F)F)c1` (stereo in doubt) [Compound 93a, 2-methyl-3-[4-[rac-(11R)-12-[4-bromo-3-(trifluoromethyl)benzoyl]-5-(cyclopropylmethyl)-11-methyl-8-oxo-2,3,7,12-tetrazatricyclo[7.4.0.0^2,6]trideca-1(9),3,5-trien-7-yl]phenyl]-1,2,4-oxadiazol-5-one]: less than 50 nM.

Usually EC50 stands for the concentration that produces a half-maximal response. The low end stands for an effect from little substance, the high end for a need for much substance.
